The test deals with T1, transcobalamin-oleosin (TC-O) chimera (Homo sapiens, UniProt P20062).
T1 construct: gene TCN2; single fusion: human TC without N-terminal signal peptide and stop codon, at the N-terminal side of full-length peanut oleosin (ER anchor; printed oleosin primer encodes MATATDR...); pAcSG2 baculovirus, Sf9 cells; membrane fraction, not purified; with Oleosin (peanut, 17 kDa)
T1 sequence (P20062 19-427): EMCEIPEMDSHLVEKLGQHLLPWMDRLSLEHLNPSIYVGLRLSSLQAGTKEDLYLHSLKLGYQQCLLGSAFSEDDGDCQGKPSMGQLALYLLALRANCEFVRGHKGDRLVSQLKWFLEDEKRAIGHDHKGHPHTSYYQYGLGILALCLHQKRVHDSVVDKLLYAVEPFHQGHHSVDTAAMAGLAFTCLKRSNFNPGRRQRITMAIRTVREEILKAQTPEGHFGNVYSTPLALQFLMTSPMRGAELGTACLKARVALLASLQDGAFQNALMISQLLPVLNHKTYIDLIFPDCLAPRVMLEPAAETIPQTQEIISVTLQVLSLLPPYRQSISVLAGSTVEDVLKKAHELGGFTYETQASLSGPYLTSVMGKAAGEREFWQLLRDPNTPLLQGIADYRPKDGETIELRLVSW
Put plainly: radioligand saturation binding, Scatchard plot. It counts as biochemical. The settings on record: membrane fraction of lysed Sf9 cells; 57Co labelled compound; TBS, 4 °C, 20 min; printed as Ka but in a concentration unit (that of a dissociation constant).

For the substance [57Co]-labeled vitamin B12, the Ka is on record as ~ 0.02 pmol/L.

The values are drawn from article PMC2710007, “Anchoring Secreted Proteins in Endoplasmic Reticulum by Plant Oleosin: The Example of Vitamin B12 Cellular Sequestration by Transcobalamin” (PLoS ONE, 2009).
